Each block holds one molecule with its values, some of them ahead of it.
Legend:
[1] = Antidiabetic activity in ZDF rat assessed as induction of glucose-stimulated insulin secretion; type: functional
[2] = biological target: Free fatty acid receptor 1 (Rattus norvegicus, UniProt Q8K3T4); experiment: Agonist activity at rat GPR40 expressed in HEK293 cells assessed as increase in intracellular Ca2+ flux by Fluo-4-AM dye based FLIPR assay; type: functional, cell-based
[3] = biological target: T1, Free fatty acid receptor 1 (Homo sapiens, UniProt O14842); experiment: Agonist activity at human GPR40 expressed in CHO cells coexpressing NFAT BLA assessed as increase in intracellular Ca2+ flux by fluo-4-AM dye based FLIPR assay; type: functional, cell-based
[4] = biological target: T1, Free fatty acid receptor 1; experiment: Agonist activity at flag-tagged human GPR40 expressed in HEK293 cells assessed as increase in intracellular Ca2+ flux by FLIPR assay; type: functional, cell-based
[5] = biological target: T1, Free fatty acid receptor 1; experiment: Agonist activity at human GPR40 expressed in CHOK cells assessed as increase in intracellular Ca2+ flux by Fluo-4 based assay; type: functional, cell-based
[6] = system: Mus musculus; experiment: Antidiabetic activity in po dosed albino Balb/c mouse assessed as reduction in plasma glucose AUC administered qd for 3 days measured on day 4 administered 60 mins prior to glucose challenge measured up to 60 mins post glucose challenge by intraperitoneal glucose tolerance test; type: functional
[7] = biological target: T1, Free fatty acid receptor 1; experiment: Agonist activity at human GPR40 expressed in HEK293 cells assessed as increase in intracellular Ca2+ flux by FLIPR assay relative to linoleic acid; type: functional, cell-based
[8] = system: Rattus norvegicus; experiment: Antidiabetic activity in po dosed Zucker fa/fa rat assessed as reduction in plasma glucose AUC administered 1 hr prior to glucose challenge measured up to 120 mins post glucose challenge by oral glucose tolerance test; type: functional
[9] = system: Rattus norvegicus; experiment: Antidiabetic activity in po dosed Zucker fa/fa rat assessed as reduction in plasma glucose AUC administered for 21 days measuredon day 21 administered 1 hr prior to glucose challenge measured up to 120 mins post glucose challenge by oral glucose tolerance test; type: functional
[10] = biological target: T1, Free fatty acid receptor 1; experiment: Agonist activity at full length recombinant human GPR40 expressed in CHOK1 cells assessed as intracellular IP3 accumulation by fluorescence assay; type: functional, cell-based, CHO-K1
[11] = Half life in human; type: ADME
[12] = Half life in iv or po dosed monkey; type: ADME, organism-based, Macaca mulatta; details: rhesus monkey, in vivo
[13] = Half life in iv or po dosed rat; type: ADME, organism-based; details: in vivo
[14] = Half life in iv or po dosed dog; type: ADME, organism-based, Canis lupus familiaris; details: in vivo
[15] = Oral bioavailability in dog; type: ADME, organism-based, Canis lupus familiaris; details: in vivo
[16] = Oral bioavailability in monkey; type: ADME, organism-based, Macaca mulatta; details: rhesus monkey, in vivo
[17] = Half life in iv or po dosed mouse; type: ADME, organism-based; details: in vivo
[18] = Oral bioavailability in mouse; type: ADME, organism-based; details: in vivo
[19] = Oral bioavailability in rat; type: ADME, organism-based; details: in vivo

T1 sequence (O14842 whole entry): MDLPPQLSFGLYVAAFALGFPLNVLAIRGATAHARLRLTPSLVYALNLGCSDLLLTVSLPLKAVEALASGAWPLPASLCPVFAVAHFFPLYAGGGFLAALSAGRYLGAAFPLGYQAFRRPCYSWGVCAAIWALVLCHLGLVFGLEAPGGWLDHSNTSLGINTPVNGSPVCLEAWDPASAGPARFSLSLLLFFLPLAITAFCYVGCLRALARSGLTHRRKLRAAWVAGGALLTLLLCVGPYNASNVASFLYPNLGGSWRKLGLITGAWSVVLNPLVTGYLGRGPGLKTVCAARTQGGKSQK
Free fatty acid receptor 1 (Rattus norvegicus, UniProt Q8K3T4), sequence (Q8K3T4 whole entry): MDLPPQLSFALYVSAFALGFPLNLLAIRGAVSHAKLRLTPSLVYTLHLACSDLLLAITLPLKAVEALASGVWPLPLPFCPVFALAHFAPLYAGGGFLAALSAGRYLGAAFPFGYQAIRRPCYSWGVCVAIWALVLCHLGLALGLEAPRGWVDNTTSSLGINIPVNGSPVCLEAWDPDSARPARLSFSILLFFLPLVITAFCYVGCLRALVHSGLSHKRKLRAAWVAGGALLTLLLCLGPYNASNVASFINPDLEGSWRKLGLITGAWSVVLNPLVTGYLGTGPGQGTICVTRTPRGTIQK

SMILES: CC#C[C@@H](CC(=O)O)c1ccc(NC(=O)C(=O)Nc2cccc(C(C)(C)C)c2)cc1
MED [1]: 1 mg/kg | EC50 [2]: 0.4 nM

SMILES: O=C(O)CCc1ccc2oc(Nc3c(Cl)c(Cl)cc(Cl)c3Cl)nc2c1
EC50 [2]: 630 nM

SMILES: COc1ccc(C)c(N2CC[C@@H](Oc3ccc(N4N=C(C(F)(F)F)[C@@H](C)[C@@H]4CC(=O)O)cc3)[C@H](C)C2)c1
EC50 [4]: 71 nM

SMILES: CO/N=C(\COc1ccc(COc2ccc(C(C#N)CC(=O)O)cc2)cc1)c1ccc(F)cc1 (stereo not given)
EC50 [5]: < 10 nM

SMILES: CC#C[C@@H](CC(=O)O)c1ccc(OCc2ccc(CN3CCCc4cccc(OC)c43)s2)cc1
ED50 [6]: 1 mg/kg

SMILES: CC#C[C@@H](CC(=O)O)c1ccc(OCCOc2cccc(Cl)c2)cc1
EC50 [2]: 10 nM

SMILES: CCOc1ccc(F)c(N2CC[C@@H](Oc3cnc(N4CC(OC)[C@@H](C)[C@@H]4CC(=O)O)cn3)[C@H](C)C2)c1 (stereo not given in full)
EC50 [4]: 42 nM

SMILES: Cc1cc(OCCC(C)O)cc(C)c1-c1ccc(F)c(COc2cc3c(cn2)[C@@H]2C(C(=O)O)[C@@H]2C3)c1 (stereo not given in full)
EC50 [3]: 13 nM

The next lines start with results.

EC50 [3]: < 300 nM
SMILES: Cc1cc(OC[C@H]2COC(C)(C)O2)cc(C)c1-c1cccc(COc2ccc(-c3cc(O)no3)cc2)c1C

Emax [7]: 76%
SMILES: CC#C[C@@H](CC(=O)O)c1ccc(OCc2ccc3nc(-c4c(C)cccc4C)nn3c2)cc1
ED90 [8]: 4.1 mg/kg | ED90 [9]: 5 mg/kg

EC50 [4]: 10 nM
SMILES: COc1ccc(F)c(-c2ccc(Cc3cccc(N4C[C@H](c5cccc(Cl)c5)C[C@@H]4CC(=O)O)c3)c(C)c2)c1

EC50 [10]: < 100 nM
SMILES: Cc1cc(OCC2CCOC2)cc(C)c1-c1cccc(COc2ccc(C3(CC(=O)O)COC3)cc2)c1 (stereo not given)

half-life [11]: 28 to 30 h
SMILES: Cc1cc(OCCCS(C)(=O)=O)cc(C)c1-c1cccc(COc2ccc3c(c2)OC[C@H]3CC(=O)O)c1

half-life [12]: 7.2 to 28 h | half-life [13]: 7.2 to 28 h | half-life [14]: 7.2 to 28 h | bioavailability [15]: 67 to 100% | bioavailability [16]: 67 to 100% | half-life [17]: 7.2 to 28 h | bioavailability [18]: 67 to 100% | bioavailability [19]: 67 to 100%
SMILES: CC#C[C@@H](CC(=O)O)c1ccc(OCc2cccc(-c3ccc(C(F)(F)F)cc3)c2)cc1

EC50 [3]: 380 nM
SMILES: Cc1cc(OCCO)ccc1-c1cccc(COc2ccc(Cn3oc(=O)[nH]c3=O)cc2)c1
